Assay results as given in patent US11707537B2, “Conformational restriction of cyanine fluorophores in far-red and near-IR range” (The United States of America, as represented by the …, priority 2017, dated 2023).
Marks after values point to notes of the source that are not given here.

Key:
Type in all cases: physicochemical
Fluorescence lifetime = settings: for solvent viscosity sensitivity of fluorescence lifetime and quantum yield: solvents of Table 2
[1] = Temperature dependence of fluorescence emission; settings: in ethanol
Excerpt: FIG. 7 is a graph showing the temperature dependence of fluorescence emission from compounds 4 (squares) and 10 (circles) in ethanol.
This is also due to photoisomerization in compound 10, which becomes more efficient at higher temperatures. The substantially longer lifetimes of compounds 4 and 7 relative to the unrestrained cyanine 10 point to significant potential for fluorescence lifetime imaging microscopy (FLIM).

[2] = Fluorescence emission and fluorescence quantum yield
Excerpt: All commercially obtained reagents were used as received. 2,3,3-trimethyl indoline (S1), malonaldehyde bis(phenylimine) monohydrochloride, Grubb's 2nd generation and Hoyveda-Grubbs 2nd generation catalysts were purchased from Sigma-Aldrich (St. Louis, Mo.). Acrolein dimethyl acetal (2) was purchased from TCI America (Portland, Oreg.). 4-hydrazinylbenzoic acid (S5) was ordered from Oakwood Chemical (Estill, S.C.). 2-(2-bromoethyl)-1,3-dioxolane was purchased from Acros Organics (Geel, Belgium). NH2-PEG8-COOH was purchased from Thermo Scientific (Waltham, Mass.). Aminophalloidin tosylate was purchased from Enzo, Inc. (Farmingdale, N.Y.). Compounds S2, S4, and S8 were synthesized according to known procedures (Hanessian et al., J. Am. Chem. Soc. 2004, 126 (19), 6064-71; Hall et al., Nucleic Acids Res. 2012, 40 (14), e108; Park et al., Bioconjugate Chem. 2012, 23 (3), 350-362). Normal phase (60 Å, 20-40 m, RediSep® Rf Gold® silica or 60 Å, 35-70 m, RediSep® Rf silica) and reversed phase (100 Å, 20-40 micron particle size, RediSep® Rf Gold® Reversed-phase C18 or C18Aq) flash column chromatography was performed on a CombiFlash© Rf 200i (Teledyne Isco, Inc., Lincoln, Nebr.). Reversed-phase preparative HPLC was performed using an Agilent 1260 Infinity II LC system utilizing a SunFire Prep C18 column (100 Å, 5 m, 10×150 mm) obtained from Waters, Co (Milford, Mass.). High-resolution LC/MS analyses were conducted on a Thermo-Fisher LTQ-Orbitrap-XL hybrid mass spectrometer system with an Ion MAX API electrospray ion source in negative ion mode. Analytical LC/MS was performed using a Shimadzu LCMS-2020 Single Quadrupole utilizing a Kinetex C18 column (100 Å, 2.6 m, 2.1×50 mm) obtained from Phenomenex, Inc (Torrance, Calif.). Runs employed a gradient of 0-90% MeCN/0.1% aqueous formic acid over 4.5 min at a flow rate of 0.2 mL/min. ^1H NMR and ^13C NMR spectra were recorded on Bruker spectrometers (at 400 or 500 MHz or at 100 or 125 MHz) and are reported relative to deuterated solvent signals. Data for ^1H NMR spectra are reported as follows: chemical shift (6 ppm), multiplicity, coupling constant (Hz), and integration. Data for ^13C NMR spectra are reported in terms of chemical shift. Absorbance curves were obtained on a Shimadzu UV-2550 spectrophotometer operated by UVProbe 2.32 software. Molar absorption coefficients (F) were determined in PBS (50 mM, pH 7.4) or methanol (MeOH) using Beer's law, from plots of absorbance vs. concentration. Measurements were performed in 10 mm path length quartz cuvettes (Hellma 111-QS) that were maintained at room temperature, and reported values are averages (n≥3). Fluorescence traces were recorded on a PTI QuantaMaster steady-state spectrofluorimeter operated by FelixGX 4.2.2 software, with 4 nm excitation and emission slit widths, and a 0.1 s integration rate. […] Chem. Chem. Phys. 112009, 9850-9860). This instrument uses an integrating sphere to measure photons absorbed and emitted by a sample. […] Reported values are averages (n≥5). Data analysis and curve fitting were performed using MS Excel 2011 and GraphPad Prism 7. Light intensity measurements were performed with a Thorlabs PM200 optical power and energy meter fitted with an S120VC standard Si photodiode power sensor (200-1100 nm, 50 nW-50 mW). See JOC Standard Abbreviations and Acronyms for abbreviations (http://pubs.acs.org/paragonplus/submission/joceah/-joceah_abbreviations.pdf).

[3] = Absorbance and molar absorption coefficient (Beer's law); settings: for shift in λmax: relative to unrestricted compound 10
Excerpt: All commercially obtained reagents were used as received. 2,3,3-trimethyl indoline (S1), malonaldehyde bis(phenylimine) monohydrochloride, Grubb's 2nd generation and Hoyveda-Grubbs 2nd generation catalysts were purchased from Sigma-Aldrich (St. Louis, Mo.). Acrolein dimethyl acetal (2) was purchased from TCI America (Portland, Oreg.). 4-hydrazinylbenzoic acid (S5) was ordered from Oakwood Chemical (Estill, S.C.). 2-(2-bromoethyl)-1,3-dioxolane was purchased from Acros Organics (Geel, Belgium). NH2-PEG8-COOH was purchased from Thermo Scientific (Waltham, Mass.). Aminophalloidin tosylate was purchased from Enzo, Inc. (Farmingdale, N.Y.). Compounds S2, S4, and S8 were synthesized according to known procedures (Hanessian et al., J. Am. Chem. Soc. 2004, 126 (19), 6064-71; Hall et al., Nucleic Acids Res. 2012, 40 (14), e108; Park et al., Bioconjugate Chem. 2012, 23 (3), 350-362). Normal phase (60 Å, 20-40 m, RediSep® Rf Gold® silica or 60 Å, 35-70 m, RediSep® Rf silica) and reversed phase (100 Å, 20-40 micron particle size, RediSep® Rf Gold® Reversed-phase C18 or C18Aq) flash column chromatography was performed on a CombiFlash© Rf 200i (Teledyne Isco, Inc., Lincoln, Nebr.). Reversed-phase preparative HPLC was performed using an Agilent 1260 Infinity II LC system utilizing a SunFire Prep C18 column (100 Å, 5 m, 10×150 mm) obtained from Waters, Co (Milford, Mass.). High-resolution LC/MS analyses were conducted on a Thermo-Fisher LTQ-Orbitrap-XL hybrid mass spectrometer system with an Ion MAX API electrospray ion source in negative ion mode. Analytical LC/MS was performed using a Shimadzu LCMS-2020 Single Quadrupole utilizing a Kinetex C18 column (100 Å, 2.6 m, 2.1×50 mm) obtained from Phenomenex, Inc (Torrance, Calif.). Runs employed a gradient of 0-90% MeCN/0.1% aqueous formic acid over 4.5 min at a flow rate of 0.2 mL/min. ^1H NMR and ^13C NMR spectra were recorded on Bruker spectrometers (at 400 or 500 MHz or at 100 or 125 MHz) and are reported relative to deuterated solvent signals. Data for ^1H NMR spectra are reported as follows: chemical shift (6 ppm), multiplicity, coupling constant (Hz), and integration. Data for ^13C NMR spectra are reported in terms of chemical shift. Absorbance curves were obtained on a Shimadzu UV-2550 spectrophotometer operated by UVProbe 2.32 software. Molar absorption coefficients (F) were determined in PBS (50 mM, pH 7.4) or methanol (MeOH) using Beer's law, from plots of absorbance vs. concentration. Measurements were performed in 10 mm path length quartz cuvettes (Hellma 111-QS) that were maintained at room temperature, and reported values are averages (n≥3). Fluorescence traces were recorded on a PTI QuantaMaster steady-state spectrofluorimeter operated by FelixGX 4.2.2 software, with 4 nm excitation and emission slit widths, and a 0.1 s integration rate. A Quantaurus-QY spectrometer (Hamamatsu, model C11374) was used to determine absolute fluorescence quantum yields (ΦF) (Suzuki et al., Phys. Chem. Chem. Phys. 112009, 9850-9860). This instrument uses an integrating sphere to measure photons absorbed and emitted by a sample. Measurements were carried out at a concentration of 250 nM in either MeOH or PBS (50 mM, pH 7.4) and self-absorption corrections were performed using the instrument software. Reported values are averages (n≥5). Data analysis and curve fitting were performed using MS Excel 2011 and GraphPad Prism 7. Light intensity measurements were performed with a Thorlabs PM200 optical power and energy meter fitted with an S120VC standard Si photodiode power sensor (200-1100 nm, 50 nW-50 mW). See JOC Standard Abbreviations and Acronyms for abbreviations (http://pubs.acs.org/paragonplus/submission/joceah/-joceah_abbreviations.pdf).

[4] = TCEP addition, formation of phosphine-polyene adducts; settings: 10 μM, TCEP in Tris (0.20 M, pH 9.0), absorbance at λmax
Experimental: FIG. 9 is a graph showing the effect of TCEP addition on absorbance of compound 7 and AF647 (10 μM each). Absorbance at λmax (compound 7 at 670 nm and AF647 at 650 nm) as a function of TCEP concentration in Tris (0.20 M, pH 9.0).
The formation of phosphine and thiol adducts in chemical and single molecule imaging contexts was also evaluated. TCEP (tris(2-carboxyethyl)phosphine) was add to compound 7 and AF647 (Alexa Fluor 647, available through ThermoFisher Scientific) (10 μM each) (Vaughan et al., JACS 2013, 135(4):1197-1200). Absorbance at λmax (compound 7 at 670 nm and AF647 at 650 nm) as a function of TCEP concentration in Tris (0.20 M, pH 9.0). Compound 7 (circles) appeared resistant to the formation of polyene-heteroatom adducts (FIG. 9).

For `CC1(C)C2=C3C=C4C=C5C6=[N+](CC[C@H]5O[C@H]4C[C@H]3CCN2c2ccccc21)c1ccccc1C6(C)C` [Compound 4], the τ (Fluorescence lifetime; Acetone) was 2.9 ns, the τ (Fluorescence lifetime; EtOH) was 2.5 ns and the τ (Fluorescence lifetime; Glycerol) was 2.3 ns. For the same molecule, the τ (Fluorescence lifetime; MeCN) was 2.8 ns, the τ (Fluorescence lifetime; in methanol (MeOH)) was 2.5 ns and the “solvent viscosity sensitivity of fluorescence lifetime and quantum yield” value (Fluorescence lifetime) was “largely solvent viscosity insensitive”. For the same molecule, the “temperature sensitivity of fluorescence emission” value [1] was “insensitive to temperature”, the ΦF ([2]; Acetone, calculated by relative method) was 0.90 and the ΦF ([2]; EtOH, calculated by relative method) was 0.68. It also gave a ΦF ([2]; Glycerol, calculated by relative method) of 0.66, a ΦF ([2]; MeCN, calculated by relative method) of 0.92 and a λem ([2]; in methanol) of 677 nm. The ΦF ([2]; in methanol (MeOH), integrating sphere) was 0.69, the ε ([3]; in methanol) was 206,000 M^−1cm^−1 and the λmax ([3]; in methanol) was 662 nm. For the same molecule, the “shift in λmax” value [3] was “approximately 25 nm”.

In the case of `CC1(C)C2=C3C=C4C=C5C6=[N+](CC[C@H]5O[C@H]4C[C@H]3CCN2c2ccc(S(=O)(=O)[O-])cc21)c1ccc(C(=O)O)cc1C6(C)C` [Compound 7], the τ (Fluorescence lifetime; in H2O) is reported as 1.7^c ns, the “solvent viscosity sensitivity of fluorescence lifetime and quantum yield” value (Fluorescence lifetime) is reported as “largely solvent viscosity insensitive” and the λem ([2]; in pH 7.4 PBS) is reported as 683^b nm. The λmax ([3]; in pH 7.4 PBS) was 670^b nm, the ε ([3]; no solvent footnote on this cell (PBS or methanol)) was 190,000 M^−1cm^−1 and the “shift in λmax” value [3] was “approximately 25 nm”. The “formation of polyene-heteroatom adducts” value [4] was “resistant”.
